Data taken from patent US20070037882A1, “Remedy for cerebral neurodegenerative diseases using ppar agonist” (Astellas Pharma Inc., priority 2003, published 2007).

Columns and labels:
[1] = test system: rat cerebral infarction model; test: Rat cerebral infarction model (middle cerebral artery-occluded reperfusion, Koizumi method); format: in vivo; details: for Lesions with cerebral infarction (area in % of damaged site in the 6 sections), Cortex / Lesions with cerebral infarction (area in % of damaged site in the 6 sections), Subcortex / Lesions with cerebral infarction (area in % of damaged site in the 6 sections), Total: 24 h after reperfusion
SH-SY5Y cells [2] = test: Thapsigargin-induced cellular death model, viable cells by MTT assay; format: cell-based, human; details: for MTT assay A490: thapsigargin + (100 nM), 24 h
Experimental: SH-SY5Y cells were plated on a 96-well plate (70,000 cell/well in 100 μl DMEM low glucose 10% fetal bovine serum) for overnight culturing, from which the culture medium was removed with an aspirator. Then, DMEM without serum was added at 50 μl/well. […] 2 hours later, DMEM without serum containing 600 nM thapsigargin was added at 20 μl/well. (Thapsigargin to a final 100 nM concentration) (For a control, DMEM without serum alone was added.) 24 hours later, the viable cell count was calculated from the absorbance at 490 nm, using Celltiter 96 Aqueous one solution cell proliferaion assay kit (Promega).

[3] = test system: murine MPTP Parkinson's model; test: Murine MPTP Parkinson's model, striate body DA and metabolites; format: in vivo, mice; details: for Resumption ratio of content of DA / Resumption ratio of content of DOPAC / Resumption ratio of content of HVA / DA content per wet weight of striate body / DOPAC content per wet weight of striate body / HVA content per wet weight of striate body: MPTP +; for DA content per wet weight of striate body / DOPAC content per wet weight of striate body / HVA content per wet weight of striate body: 4 days after MPTP
SH-SY5Y cells [4] = test: MPP+-induced cellular death model, viable cells by MTT assay; format: cell-based, human; details: for MTT assay A490: MPP+ + (3 mM), 24 h
Experimental: SH-SY5Y cells were spread on a 96-well plate (70,000 cell/well in 100 μl DMEM low glucose 10% fetal bovine serum) for overnight culturing, from which the culture medium was removed with an aspirator. Then, DMEM without serum was added at 50 μl/well. […] 2 hours later, DMEM without serum containing 18 mM MPP^+ was added at 20 μl/well. (MPP^+ to a final 3 mM concentration) (For a control, DMEM without serum alone was added).
24 hours later, cell growth activity was assayed by measuring the absorbance at 490 nm, using Celltiter 96 aqueous one solution cell proliferation assay kit (Promega).
In the assay system, MPP^+ as an MPTP metabolite was added to a neuroblastoma SH-SY5Y, to inhibit the mitochondrial complex I to cause the generation of active oxygen and the inhibition of ATP synthesis, to induce cellular death. It is said that in the murine MPTP model commonly used as a model of Parkinson's disease, MPTP passing through the blood brain barrier is metabolized into MPP^+, which exerts toxicity specific to murine nigra cell to induce nerve detachment. Therefore, the assay system can be said as an in vitro assay system mimicking the murine MPTP model.

SH-SY5Y cells [5] = test: MPP+-induced cellular death model, dead cells by LDH assay; format: cell-based, human; details: for LDH release A490: MPP+ + (3 mM), 24 h
Experimental: SH-SY5Y cells were spread on a 96-well plate (70,000 cell/well in 100 μl DMEM low glucose 10% fetal bovine serum) for overnight culturing, from which the culture medium was removed with an aspirator. Then, DMEM without serum was added at 50 μl/well. […] 2 hours later, DMEM without serum containing 18 mM MPP^+ was added at 20 μl/well. (MPP^+ to a final 3 mM concentration) (For a control, DMEM without serum alone was added.)
24 hours later, the dead cell count was calculated on the basis of the LDH activity assayed with a cytotoxicity detection kit (Roche). […] The results reveal that the PPARδ agonists are effective on the suppression of MPP^+-induced cellular death.

SH-SY5Y cells [6] = test: Staurosporine-induced cellular death model, apoptosis by caspase-3/7 assay; format: cell-based, human; details: for Caspase 3/7 activity: staurosporine + (150 nM), 3 h
Experimental: (§1) SH-SY5Y cells were spread on a 96-well plate (70,000 cell/well in 100 μl DMEM low glucose 10% fetal bovine serum) for overnight culturing, from which the culture medium was removed with an aspirator. Then, DMEM without serum was added at 50 μl/well. […] 2 hours later, DMEM without serum containing 900 nM staurosporine was added at 20 μl/well. (Staurosporine to a final 150 nM concentration) (For a control, DMEM without serum alone was added).
3 hours later, the caspase-3/7 activity was assayed with Apo-One homogenous Caspase-3/7 assay kit (Promega).

SH-SY5Y cells [7] = test: Thapsigargin-induced cellular death model, apoptosis by caspase-3/7 assay; format: cell-based, human; details: for Caspase 3/7 activity: thapsigargin + (100 nM), 3 h
SH-SY5Y cells [8] = test: Staurosporine-induced cellular death model, dead cells by LDH assay; format: cell-based, human; details: staurosporine + (150 nM), 24 h
Experimental: as §1, with “plated” for “spread”, “added.) 24 hours later, LDH activity was assayed by measuring the absorbance at 490 nm, using Cytotoxicity detection kit (Roche). […] An apparent correlation is observed with the results of viable cells as determined by the MTT assay in Example 9.” for “added).”

## CCCc1c(OCCCOc2ccc(OCC(=O)O)cc2)ccc(C(C)=O)c1O [L-165041, 4-[3-[2-propyl-3-hydroxy-4-acetyl]phenoxy]propyloxyphenoxy acetic acid]
[1]; 24 μg/head/day i.c.v.
  Lesions with cerebral infarction (area in % of damaged site in the 6 sections), Cortex: 12.70 ± 0.63%
  Lesions with cerebral infarction (area in % of damaged site in the 6 sections), Subcortex: 9.98 ± 0.30%
  Lesions with cerebral infarction (area in % of damaged site in the 6 sections), Total: 22.68 ± 0.83%
[1]; 240 μg/head/day i.c.v.
  Lesions with cerebral infarction (area in % of damaged site in the 6 sections), Cortex: 10.22 ± 1.29 %
  Lesions with cerebral infarction (area in % of damaged site in the 6 sections), Subcortex: 9.19 ± 0.85%
  Lesions with cerebral infarction (area in % of damaged site in the 6 sections), Total: 19.40 ± 1.98%
[1]; i.c.v. 24 •g/head/day
  Reduction ratio of cerebral cortex damage: 9%
[1]; i.c.v. 240 •g/head/day
  Reduction ratio of cerebral cortex damage: 27%
[1]; rat cerebral infarction model
  action to reduce cerebral infarction (in words): potent actions to reduce cerebral infarction
SH-SY5Y cells [2]; SH-SY5Y, thapsigargin
  suppression of thapsigargin-induced cellular death (in words): suppressed cellular death induced by thapsigargin (TG) in a concentration-dependent manner
SH-SY5Y cells [2]; compound 0.1 μM
  MTT assay A490: 0.2176 ± 0.0036
SH-SY5Y cells [2]; compound 1 μM
  MTT assay A490: 0.2158 ± 0.0034
SH-SY5Y cells [2]; compound 10 μM
  MTT assay A490: 0.2436 ± 0.0015
SH-SY5Y cells [2]; compound 100 μM
  MTT assay A490: 0.4405 ± 0.0065
[3]; 12 μg/head/day
  Resumption ratio of content of DA: 0.42 ± 10.20%
  Resumption ratio of content of DOPAC: −1.45 ± 10.89%
  Resumption ratio of content of HVA: −4.65 ± 12.88%
  DA content per wet weight of striate body: 5.06 ± 1.08 ng/mg tissue
  DOPAC content per wet weight of striate body: 0.28 ± 0.05 ng/mg tissues
  HVA content per wet weight of striate body: 0.66 ± 0.08 ng/mg tissue
[3]; 120 μg/head/day
  Resumption ratio of content of DA: 26.42 ± 8.83 %
  Resumption ratio of content of DOPAC: 32.22 ± 15.41%
  Resumption ratio of content of HVA: 36.58 ± 16.68%
  DA content per wet weight of striate body: 7.81 ± 0.93 ng/mg tissue
  DOPAC content per wet weight of striate body: 0.44 ± 0.07 ng/mg tissues
  HVA content per wet weight of striate body: 0.91 ± 0.10 ng/mg tissue
[3]; dose of 12 μg/head/day
  action of suppressing the decrease of the contents of DA, DOPAC and HVA (in words): not so greatly observed
[3]; dose of 120 μg/head/day
  action of suppressing the decrease of the contents of DA, DOPAC and HVA (in words): greatly observed
SH-SY5Y cells [4]; SH-SY5Y, MPP+
  suppression of MPP+-induced cellular death (in words): suppress cellular death induced by MPP^+ in a concentration-dependent manner
SH-SY5Y cells [4]; compound 0.1 μM
  MTT assay A490: 0.3744 ± 0.0067
SH-SY5Y cells [4]; compound 1 μM
  MTT assay A490: 0.3935 ± 0.0083
SH-SY5Y cells [4]; compound 10 μM
  MTT assay A490: 0.4799 ± 0.0078
SH-SY5Y cells [4]; compound 100 μM
  MTT assay A490: 0.3181 ± 0.0122
SH-SY5Y cells [5]; compound 0.1 μM
  LDH release A490: 0.3980 ± 0.0141
SH-SY5Y cells [5]; compound 1 μM
  LDH release A490: 0.3874 ± 0.0120
SH-SY5Y cells [5]; compound 10 μM
  LDH release A490: 0.3133 ± 0.0024
SH-SY5Y cells [5]; compound 100 μM
  LDH release A490: 0.6709 ± 0.0093
SH-SY5Y cells [5]; concentration of 100 μM, MPP+ model
  cytotoxicity (in words): exerted cytotoxicity
SH-SY5Y cells [6]; SH-SY5Y, staurosporine
  suppression of caspase-3/7 activity (in words): suppress the activity of caspase-3/7
SH-SY5Y cells [6]; compound 0.1 μM
  Caspase 3/7 activity: 535404 ± 23301 RFLU
SH-SY5Y cells [6]; compound 1 μM
  Caspase 3/7 activity: 520732 ± 17273 RFLU
SH-SY5Y cells [6]; compound 10 μM
  Caspase 3/7 activity: 483017 ± 27259 RFLU
SH-SY5Y cells [7]; SH-SY5Y, thapsigargin
  suppression of caspase-3/7 activity (in words): suppress the activity of caspase-3/7
SH-SY5Y cells [7]; compound 0.1 μM
  Caspase 3/7 activity: 732549 ± 24888 RFLU
SH-SY5Y cells [7]; compound 1 μM
  Caspase 3/7 activity: 652843 ± 8229 RFLU
SH-SY5Y cells [7]; compound 10 μM
  Caspase 3/7 activity: 554233 ± 23703 RFLU
SH-SY5Y cells [7]; compound 100 μM
  Caspase 3/7 activity: 242770 ± 5414 RFLU
SH-SY5Y cells [8]; compound 0.1 μM
  LDH release A490: 0.5330 ± 0.0298
SH-SY5Y cells [8]; compound 1 μM
  LDH release A490: 0.5230 ± 0.0160
SH-SY5Y cells [8]; compound 10 μM
  LDH release A490: 0.5319 ± 0.0267
